# Assay results published in patent US20260109725A1, “MACROLIDE SENOLYTIC COMPOUNDS” (LUNELLA BIOTECH, INC., priority 2022, published 2026).
# Tests used:
# [1] = system: MRC-5 cells treated with BrdU (senescent fibroblasts); assay: SRB assay, BrdU-treated (senescent) MRC-5 cells; format: cell-based, human
# Experimental: (§1) For example, in one assay bromodeoxyuridine (5-bromo-2′-deoxyuridine), also known as BrdU, was used to induce senescence in a cell population. BrdU is an analog of the nucleoside thymidine commonly used to identify proliferating cells. BrdU induces controlled DNA damage, and drives cells towards senescence with high efficiency. In the BrdU assay, normal fibroblasts are subjected to prolonged culture (8-days) in the presence of BrdU at 100 μM to induce controlled DNA-damage and senescence. […] Senolytic activity was assessed using the sulforhodamine B assay, also known in the art as the SRB assay. This assay measures the amount of protein remaining attached to the tissue-culture dishes, and is a surrogate marker for cell viability.
# (§2) FIG. 1 compares SRB assay results for different concentrations of Azithromycin (100 µM and 50 μM) and Compound [I] (100 μM and 50 μM) of the present approach, on both control MRC-5 cells and MRC-5 cells treated with BrdU. […] (labelled as “Azi-Gal” in FIG. 1) for another 5 days. After that, the SRB assay was performed to determine the effects of the drug on cell viability, using normal MRC-5 cells as the control. […] However, at 50 μM Azithromycin had no effect on either the control cells or senescent cells.
# (§3) BrdU Assay: Cells were plated into 24-well plates. Next day, half of the plate was treated with 100 μM of BrdU while control wells were treated with vehicle only (DMSO) and incubated for 8 days at 37° C. in a 5% CO2 humidified atmosphere. After 8 days of BrdU treatment cells were treated with various test compounds or drugs (e.g., azithromycin, roxithromycin, telithromycin, erythromycin, etc.) for another 3-5 days. BrdU or vehicle treatments were continued during the drug treatments as well.
# (§4) Sulphorhodamine B assay: After the incubation of the plates cell viability was measured by Sulphorhodamine B assay (SRB). The assay is based on the measurement of cellular protein contents. Cells were fixed with 10% Trichloroacetic acid (TCA) for 1 hour at […], and were dried overnight at room temperature. Then, plates were incubated with SRB for 30 min, washed twice with 1% acetic acid and air dried for at least 1 h. Finally, the protein-bound dye was dissolved in a 10 mM Tris, pH 8.8, solution and read using a plate reader at 540-nm.
# [2] = system: control MRC-5 cells (normal lung fibroblasts); assay: SRB assay, control (normal) MRC-5 cells; format: cell-based, human
# Experimental: as §1, §2, §3, §4
# [3] = system: Enterococcus faecalis ATCC 29212; assay: in vitro broth microdilution assay (MIC); format: cell-based; details: ATCC29212; Enterococcus faecalis ATCC 29212, QC strain
# Experimental: (§5) This is advantageous because use of the compounds of the present approach as therapeutic agents will have less of an impact on the development of antibiotic resistance. For example, embodiments of the present approach were screened for antibiotic activity, using the in vitro broth microdilution assay. […] The assay conditions, described by the Clinical and Laboratory Standards Institute were used for preparation of the inoculum, growth medium, and end point reading. Test substance was dissolved in 100% DMSO, suspended completely by vortexing, diluted by 2-fold serial titrations in the same vehicle, for a total of 11 test concentrations. A 4 μL aliquot of each dilution was added to 196 μL of broth medium seeded with the organism suspension in wells of a 96 well plate (bacterial count: 2-8×10(5) colony forming units/mL final). The final volume was 200 μL in each well and the final DMSO concentration was 2 percent. Test concentrations were 0.1 to 100 μM. Following incubation, the test plates were visually examined and wells were scored for growth or complete growth inhibition to define the minimum inhibitory concentration. Each test substance was evaluated with replicates. Vehicle controls and an active reference agent were used as blank and positive controls. Note that MRSA represents methicillin-resistant Staphylococcus aureus, and VRE represents vancomycin resistant Enterococcus.
# [4] = system: Staphylococcus aureus ATCC 33591 MRSA; assay: in vitro broth microdilution assay (MIC); format: cell-based
# Experimental: as §5
# [5] = system: Acinetobacter baumannii ATCC 17978; assay: in vitro broth microdilution assay (MIC); format: cell-based; details: ATCC17978
# Experimental: as §5
# [6] = system: Staphylococcus aureus ATCC 29213; assay: in vitro broth microdilution assay (MIC); format: cell-based; details: ATCC29213; Staphylococcus aureus ATCC 29213, QC strain
# Experimental: as §5
# [7] = system: Klebsiella pneumoniae ATCC 43816; assay: in vitro broth microdilution assay (MIC); format: cell-based; details: ATCC43816
# Experimental: as §5
# [8] = system: Pseudomonas aeruginosa ATCC 27853; assay: in vitro broth microdilution assay (MIC); format: cell-based; details: ATCC27853; Pseudomonas aeruginosa ATCC 27853, QC strain
# Experimental: as §5
# [9] = system: Enterococcus faecium ATCC 700221 VanA VRE; assay: in vitro broth microdilution assay (MIC); format: cell-based
# Experimental: as §5
# [10] = system: Escherichia coli JW5503 DEL-tolC; assay: in vitro broth microdilution assay (MIC); format: cell-based; details: JW5503DELTOLC
# Experimental: as §5
# [11] = system: Escherichia coli ATCC 25922; assay: in vitro broth microdilution assay (MIC); format: cell-based; details: ATCC25922; Escherichia coli ATCC 25922, QC strain
# Experimental: as §5
# [12] = system: Haemophilus influenzae ATCC 49247; assay: in vitro broth microdilution assay (MIC); format: cell-based; details: ATCC49247; Haemophilus influenzae ATCC 49247, QC strain
# Experimental: as §5
# [13] = system: Streptococcus pneumoniae ATCC 49619; assay: in vitro broth microdilution assay (MIC); format: cell-based; details: ATCC49619; Streptococcus pneumoniae ATCC 49619, QC strain
# Experimental: as §5
# [14] = system: MCF-7 cells; assay: mammosphere formation assay (3D anchorage independent growth); format: cell-based, human
# Experimental: The compounds disclosed herein may also be used as therapeutic agent to selectively eradicate CSCs for treating and/or preventing tumor recurrence and/or metastasis. […] This assay measures the amount of residual protein that adheres to tissue culture dishes and is a surrogate marker of cell viability.
# 3D Anchorage Independent Growth Assay: This assay is also referred to as the mammosphere formation assay. A single-cell suspension was prepared using enzymatic, and manual disaggregation (25-g needle). Then, cells were plated at a density of 500 cells/cm^2 in mammosphere medium (DMEM-F12+1X B-27 Plus Supplement+20 ng/ml EGF+Pen/Strep) under non-adherent conditions, in culture dishes pre-coated with (2-hydroxyethylmethacrylate) (poly-HEMA, Sigma Aldrich Inc.), called “mammosphere plates.” Cells were grown for 5 days and maintained in a humidified incubator at 37° C. After 5 days of culture, 3D-mammospheres >50 μm were counted using an eye piece (“graticule”), and the percentage of cells plated which formed spheres was calculated and is referred to as percent mammosphere formation, and was normalized to one (1=100% MFE). 3D mammosphere formation efficiency (MFE) was analyzed in both the ATP-low and ATP-high sub-populations of cells. All 3D mammosphere experiments were performed in triplicate, at least 3 times independently.
# [15] = SRB, control vs BrdU-treated MRC5
structure (smiles),measurement,setting,value
"CC[C@H]1OC(=O)[C@H](C)[C@@H](O[C@@H]2C[C@@](C)(OC)[C@@H](O)[C@H](C)O2)[C@H](C)[C@@H](O[C@@H]2O[C@H](C)C[C@H](N(C)C)[C@H]2OC(=O)OCc2ccc(O[C@@H]3O[C@H](COC(C)=O)[C@H](OC(C)=O)[C@H](OC(C)=O)[C@H]3OC(C)=O)c([N+](=O)[O-])c2)[C@](C)(O)C[C@@H](C)C(=O)[C@H](C)[C@@H](O)[C@]1(C)O [Compound [VI], 2R,3S,4S,5R,6S)-3,4,5-triacetoxy-6-[4-[[(2S,3R,4S,6R)-4-(dimethylamino)-2-[[(3R,4S,5S,6R,7R,9R,11R,12R,13S,14R)-14-ethyl-7,12,13-trihydroxy-4-[(2S,4R,5S,6S)-5-hydroxy-4-methoxy-4,6-dimethyl-tetrahydropyran-2-yl]oxy-3,5,7,9,11,13-hexamethyl-2,10-dioxo-oxacyclotetradec-6-yl]oxy]-6-methyl-tetrahydropyran-3-yl]oxycarbonyloxymethyl]-2-nitro-phenoxy]tetrahydropyran-2-yl]methyl acetate]",effect on the senescent cells (SRB),[1]; BrdU-treated MRC5,little effect
same,"preference for normal, non-senescent control cells (SRB)",[2]; compared to Roxithromycin and Erythromycin,"preference for the normal, non-senescent control cells"
"CC[C@H]1OC(=O)[C@H](C)[C@@H](O[C@@H]2C[C@@](C)(OC)[C@@H](O)[C@H](C)O2)[C@H](C)[C@@H](O[C@@H]2O[C@H](C)C[C@H](N(C)C)[C@H]2OC(=O)CCC(=O)OCc2ccc(O[C@@H]3O[C@H](COC(C)=O)[C@H](OC(C)=O)[C@H](OC(C)=O)[C@H]3OC(C)=O)c([N+](=O)[O-])c2)[C@](C)(O)C[C@@H](C)CN(C)[C@H](C)[C@@H](O)[C@]1(C)O [Compound [III], O4-[(2S,3R,4S,6R)-4-(dimethylamino)-2-[[(2R,3S,4R,5R,8R,10R,11R,12S,13S,14R)-2-ethyl-3,4,10-trihydroxy-13-[(2S,4R,5S,6S)-5-hydroxy-4-methoxy-4,6-dimethyl-tetrahydropyran-2-yl]oxy-3,5,6,8,10,12,14-heptamethyl-15-oxo-1-oxa-6-azacyclopentadec-11-yl]oxy]-6-methyl-tetrahydropyran-3-yl] O1-[[3-nitro-4-[(2S,3R,4S,5S,6R)-3,4,5-triacetoxy-6-(acetoxymethyl)tetrahydropyran-2-yl]oxy-phenyl]methyl]butanedioate]","potency relative to the parent compound, Azithromycin (SRB)",[1]; [15],about half
same,senolytic activity compared to Azithromycin and Compound [I],[1]; [15],significantly less senolytic activity
"CC[C@H]1OC(=O)[C@H](C)[C@@H](O[C@H]2C[C@@](C)(OC)[C@@H](O)[C@H](C)O2)[C@H](C)[C@@H](O[C@@H]2O[C@H](C)C[C@H](N(C)C)[C@H]2O)[C@](C)(O)C[C@@H](C)CN(C)[C@H](C)[C@@H](O)[C@]1(C)O [Azithromycin, reference compound]",effect on senescent cells (SRB),"[1]; 50 μM, 5 days after 8 days BrdU",no effect
same,effect on senescent MRC-5 fibroblasts (SRB),"[1]; 100 μM, 5 days after 8 days BrdU",selectively killed
same,effect on control cells (SRB),"[2]; 50 μM, 5 days",no effect
same,effect on viability of normal MRC-5 lung fibroblasts (SRB),"[2]; 100 μM, 5 days",no effect
same,MIC,[3],6.25 µM
same,MIC,[4],> 100 µM
same,MIC,[5],6.25 µM
same,MIC,[6],1.56 µM
same,MIC,[7],25 µM
same,MIC,[8],100 µM
same,MIC,[9],> 100 µM
same,MIC,[10],1.56 µM
same,MIC,[11],6.25 µM
same,MIC,[12],3.12 µM
same,MIC,[13],0.39 µM
same,inhibition of MCF-7 cells compared to the control (mammosphere formation),[14]; 200 μM,about 30%
same,IC50,"[14]; Homo sapiens, MCF7",118 µM
"CC[C@H]1OC(=O)[C@H](C)[C@@H](O[C@@H]2C[C@@](C)(OC)[C@@H](O)[C@H](C)O2)[C@H](C)[C@@H](O[C@@H]2O[C@H](C)C[C@H](N(C)C(=O)OCc3ccc(O[C@@H]4O[C@H](COC(C)=O)[C@H](OC(C)=O)[C@H](OC(C)=O)[C@H]4OC(C)=O)c([N+](=O)[O-])c3)[C@H]2O)[C@](C)(O)C[C@@H](C)CN(C)[C@H](C)[C@@H](O)[C@]1(C)O [Compound [IV], [(2R,3S,4S,5R,6S)-3,4,5-triacetoxy-6-[4-[[[(2S,3R,4S,6R)-2-[[(2R,3S,4R,5R,8R,10R,11R,12S,13S,14R)-2-ethyl-3,4,10-trihydroxy-13-[(2S,4R,5S,6S)-5-hydroxy-4-methoxy-4,6-dimethyl-tetrahydropyran-2-yl]oxy-3,5,6,8,10,12,14-heptamethyl-15-oxo-1-oxa-6-azacyclopentadec-11-yl]oxy]-3-hydroxy-6-methyl-tetrahydropyran-4-yl]-methyl-carbamoyl]oxymethyl]-2-nitro-phenoxy]tetrahydropyran-2-yl]methyl acetate]","selectivity for senescent cells over normal, non-senescent cells (SRB)",[1]; control vs BrdU-treated MRC5,no little selectivity
